pIC50: −log10 of the molar value.

For this assay, the target named is ASK1 kinase (Homo sapiens (Human), UniProt Q99683). The experiment in a line: ASK1 kinase inhibition, HTRF KinEASE-STK TR-FRET assay. The class given is biochemical. Particulars: 5 nM ASK1, 1 uM STK3 peptide substrate, 100 uM ATP, 3 hours. Here is the method: The ability (IC50) of compounds to inhibit ASK1 kinase activity was determined by HTRF® KinEASE™ Assay System.
Chain of ASK1 kinase (Q99683 whole entry): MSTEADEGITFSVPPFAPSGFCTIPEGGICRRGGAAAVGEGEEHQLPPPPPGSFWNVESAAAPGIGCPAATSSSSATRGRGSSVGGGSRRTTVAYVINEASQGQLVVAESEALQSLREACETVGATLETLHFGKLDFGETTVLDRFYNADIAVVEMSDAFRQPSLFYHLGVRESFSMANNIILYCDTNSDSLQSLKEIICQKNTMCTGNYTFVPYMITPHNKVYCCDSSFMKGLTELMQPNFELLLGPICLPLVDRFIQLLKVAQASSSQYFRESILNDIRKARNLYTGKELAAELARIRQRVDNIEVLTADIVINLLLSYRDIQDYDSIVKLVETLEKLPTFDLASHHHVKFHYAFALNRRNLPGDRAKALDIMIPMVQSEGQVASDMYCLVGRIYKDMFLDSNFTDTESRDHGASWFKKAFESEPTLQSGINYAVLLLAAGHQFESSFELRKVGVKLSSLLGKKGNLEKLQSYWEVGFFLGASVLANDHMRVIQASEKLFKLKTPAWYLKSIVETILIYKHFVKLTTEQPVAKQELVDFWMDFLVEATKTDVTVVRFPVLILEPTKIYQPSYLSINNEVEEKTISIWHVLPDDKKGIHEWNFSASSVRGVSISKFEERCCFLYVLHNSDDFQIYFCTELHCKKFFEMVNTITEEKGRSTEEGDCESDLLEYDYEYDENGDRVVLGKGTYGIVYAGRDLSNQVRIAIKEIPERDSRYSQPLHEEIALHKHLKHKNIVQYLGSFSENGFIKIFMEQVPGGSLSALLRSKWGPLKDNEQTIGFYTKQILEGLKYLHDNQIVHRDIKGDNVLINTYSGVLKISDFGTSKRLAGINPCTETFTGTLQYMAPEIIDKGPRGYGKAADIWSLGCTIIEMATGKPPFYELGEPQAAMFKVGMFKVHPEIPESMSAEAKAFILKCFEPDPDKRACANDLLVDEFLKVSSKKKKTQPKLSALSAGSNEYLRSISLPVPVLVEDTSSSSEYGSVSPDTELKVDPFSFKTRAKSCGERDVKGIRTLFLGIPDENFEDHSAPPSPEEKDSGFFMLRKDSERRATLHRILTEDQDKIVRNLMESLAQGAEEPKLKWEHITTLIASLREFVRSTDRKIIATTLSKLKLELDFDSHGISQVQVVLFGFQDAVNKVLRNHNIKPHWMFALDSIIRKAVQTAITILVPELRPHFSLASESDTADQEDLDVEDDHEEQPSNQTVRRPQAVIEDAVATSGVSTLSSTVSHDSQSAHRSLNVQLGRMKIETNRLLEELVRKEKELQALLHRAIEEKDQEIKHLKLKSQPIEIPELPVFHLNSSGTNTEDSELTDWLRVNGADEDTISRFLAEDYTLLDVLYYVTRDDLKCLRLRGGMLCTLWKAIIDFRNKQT
ASK1 was purchased from Thermofisher (Catalogue #PV4011), ATP was purchased from Sigma (Catalogue #A7699), HTRF® KinEASE™ Assay System was obtained from Cisbio (Bedford, Mass.). ½ Area plate was purchased from Perkin Elmer (Catalogue ##6005560). HTRF® KinEASE™-STK is a generic method for measuring serine/threonine kinase activities using a time-resolved fluorescence resonance energy transfer (TR-FRET) immunoassay. The IC50 value for each compound was determined in the presence of compound (various concentration from 0 to 10 μM) and a fixed amount of ATP and peptide substrates. The test compound, 1 uM STK3 peptide substrate, and 5 nM of ASK1 kinase are incubated with kinase reaction buffer containing 50 mM HEPES pH 7.5, 0.01% BRIJ-35, 10 mM MgCl2, and 1 mM EGTA for 30 minutes. 100 uM ATP is added to start kinase reaction and incubated for 3 hours. The STK3-antibody labeled with Eu^3+-Cryptate and 125 nM streptavidin-XL665 are mixed in a single addition with stop reagents provided by the Cisbio kit used to stop the kinase reaction. Fluorescence is detected using an Envision Multilabeled 2014 reader from PerkinElmer. The Fluorescence is measured at 615 nm (Cryptate) and 665 nm (XL665) and a ratio of 665 nm/615 nm is calculated for each well. The resulting TR-FRET is proportional to the phosphorylation level. Staurosporine was used as the positive control. IC50 was determined by XLfit 5.3.
By using above method, the inhibition of ASK1 was tested for the compound of formula (I). IC50 ranges are as follows: A<1 nM; 1 nM B<10 nM; 10 nM<C<100 nM; 100 nM<D<1 μM; […].
(In general: Time-resolved FRET reads energy transfer from a long-lived donor to a nearby acceptor.)
As usually defined, the pIC50 is the IC50 on a negative log10 scale, so that one unit is a factor of ten. For the compound `Cc1cc(F)c(C(=O)Nc2cccc(-n3cnnc3C(C)C)n2)cc1-n1cnc(C2CC2)c1` [Example 1c, 5-(4-cyclopropyl-1H-imidazol-1-yl)-2-fluoro-N-(6-(3-isopropyl-4H-1,2,4-triazol-4-yl)pyridin-2-yl)-4-methylbenzamide], the pIC50 was less than 6.00. Compound `Cc1cc(F)c(C(=O)Nc2cccc(-n3nnnc3C(C)C)n2)cc1-n1cnc(C(F)(F)F)c1` [Example 2b] showed a pIC50 of 6.00 to 7.00. The figure for `Cc1cc(F)c(C(=O)Nc2cccc(-c3nnnn3C(C)C(=O)O)n2)cc1-n1cnc(C2CC2)c1` (centres unmarked) [Example 19a] is 6.00 to 7.00.

In turn, `CC(=O)OC[C@@H](C)n1nnnc1-c1cccc(NC(=O)c2cc(-n3cnc(C4CC4)c3)c(C)cc2F)n1` [Example 6a, (R)-2-(5-(6-(5-(4-cyclopropyl-1H-imidazol-1-yl)-2-fluoro-4-methyl-benzamido)pyridin-2-yl)-1H-tetrazol-1-yl)propyl acetate] showed a pIC50 of 6.00 to 7.00. The figure for `Cc1cc(F)c(C(=O)Nc2ccnc(-c3nnn[nH]3)n2)cc1-n1cnc(C2CC2)c1` [Example 36a] is less than 6.00.

Source of the values: patent US10988458B2, “Apoptosis signal-regulating kinase 1 inhibitors and methods of use thereof” (Enanta Pharmaceuticals, Inc., priority 2017, dated 2021).
